Experimental data reported in ChEMBL document CHEMBL1128149, “Molecular design of novel PGI2 agonists without PG skeleton. IV” (Bioorg Med Chem Lett, 1995).

Experiments:
[1] = species: Homo sapiens; experiment: Compound was tested for its inhibitory activity against 4 uM ADP-induced platelet aggregation of human platelet rich plasma; assay type: functional
[2] = target: Prostacyclin receptor (Homo sapiens, UniProt P43119); experiment: Compound was tested for its binding affinity against Prostaglandin I2 receptor using conventional ligand assay by the displacement of [3H]-iloprost from human platelets
Sequence of Prostacyclin receptor (P43119 whole entry): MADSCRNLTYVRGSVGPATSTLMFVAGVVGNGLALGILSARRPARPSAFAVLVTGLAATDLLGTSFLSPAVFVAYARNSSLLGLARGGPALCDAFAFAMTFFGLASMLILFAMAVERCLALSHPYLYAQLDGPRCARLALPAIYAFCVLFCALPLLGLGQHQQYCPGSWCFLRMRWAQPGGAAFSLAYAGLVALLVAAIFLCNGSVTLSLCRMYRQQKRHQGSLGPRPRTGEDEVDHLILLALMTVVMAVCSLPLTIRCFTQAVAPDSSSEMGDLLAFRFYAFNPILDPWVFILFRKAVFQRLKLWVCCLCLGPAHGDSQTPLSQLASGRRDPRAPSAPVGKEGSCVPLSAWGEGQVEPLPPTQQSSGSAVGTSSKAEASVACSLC

Row | Compound | IC50 ([1]; Homo sapiens, Plasma) | IC50 [2] | IC50 [1]
1 | O=C(O)COc1cccc2c1CCC=C2CCn1cc(C(c2ccccc2)c2ccccc2)cn1 | 8600 nM | 2000 nM | 
2 | O=C(O)COc1cccc2c1CCCC2CCn1cc(C(c2ccccc2)c2ccccc2)cn1 (stereo not drawn) | 93 nM | 18 nM | 
3 | O=C(O)COc1cccc2c1CCC(Cc1nc(C(c3ccccc3)c3ccccc3)co1)C2 (stereo not drawn) |  |  | 5100 nM
4 | O=C(O)COc1cccc2c1CCC(Cc1coc(C(c3ccccc3)c3ccccc3)n1)C2 (stereo not drawn) |  |  | 1000 nM
5 | O=C(O)COc1cccc2c1CCC(Cn1cnc(C(c3ccccc3)c3ccccc3)c1)C2 (stereo not drawn) | 670 nM |  | 
6 | O=C(O)COc1cccc2c1CCC(Cn1cc(C(c3ccccc3)c3ccccc3)cn1)=C2 | 26 nM | 8 nM | 

Next, values leading:

Row | IC50 ([1]; Homo sapiens, Plasma) | IC50 [2] | IC50 [1] | Compound
7 | 12000 nM |  |  | O=C(O)COc1cccc2c1CCC(CC1C=NC(C(c3ccccc3)c3ccccc3)=N1)C2 (stereo not drawn)
8 |  | 40 nM | 530 nM | O=C(O)COc1cccc2c1CCC(Cn1cc(C(c3ccccc3)c3ccccc3)cn1)C2 (stereo not drawn)
9 |  |  | 1000 nM | O=C(O)COc1cccc2c1CCC(CC1=NC(C(c3ccccc3)c3ccccc3)=NC1)C2 (stereo not drawn)
